The values that follow come from paper PMC8484140 (Targeted Oncology, 2021).

What is called Tmax is the time at which the peak concentration occurs. In general, half-life refers to the time in which the quantity being followed falls by half. Usually AUC(0-t) stands for exposure summed from dosing to a finite time, without extrapolation to infinity. A higher AUC(0-t) goes with more exposure. As a reminder, the Cmax is the highest concentration seen after dosing.

Data set [1] in a line: Pharmacokinetics of exemestane, additional 21 patients. Conditions: female, human, plasma, oral. Type of data set: in vivo.
For data set [2], the system named is advanced breast cancer. Conditions: in combination with exemestane; cited from earlier work.

Regarding `C=C1C[C@@H]2[C@H](CC[C@]3(C)C(=O)CC[C@@H]23)[C@@]2(C)C=CC(=O)C=C12` [Exemestane], in data set [1], the time of peak concentration (Tmax) was 3.95 h and the half-life is 5.68 h. In addition, in data set [1] (25 mg), the exposure AUC(0-t) came to 54.6 ng·h/mL, the highest concentration (Cmax) came out at 17 ng/mL, the time to peak (Tmax) is 1.02 h and the half-life was 6.24 h.

`Nc1cc(F)ccc1NC(=O)c1ccc(CNC(=O)/C=C/c2cccnc2)cc1` [chidamide]: in data set [2], the “Median PFS” value is reported as 7.4 months; the “Neutropenia, patients” value is listed as 51%; the “Thrombocytopenia, patients” value was 28%.
